Test results reported in patent US4735959A, “Carboxylic acid amides and pharmaceutical compositions containing them” (Dr. Karl Thomae GmbH, priority 1981, dated 1988).
Like-named read-outs stand apart in the source and are kept apart here.

Experiments:
Format in all cases: in vivo
blood-sugar = assay: Blood-sugar lowering activity in starved female rats after oral administration; settings: for change in vivo at 1 mg/kg / change in vivo at 5 mg/kg / change in vivo at 10 mg/kg: Rattus norvegicus, po, read-out: Blood-sugar lowering activity, percent as compared with the controls
Protocol: The blood-sugar lowering activity of the test compounds was determined in home-bred female rats with weights of from 180 to 220 grams. Twenty-four hours before starting the test the animals were starved. Before the test the compounds were suspended in 1.5% methyl cellulose and administered to the animals by means of an esophageal tube.
Blood was taken from the retroorbital plexus vein before administration of the test compounds as well as each of 1, 2, 3, and 4 hours after administration. Fifty microliters of each sample were deproteinized with 0.5 ml of 0.33N perchloric acid and centrifuged. The glucose content was determined in the supernatant according to the Hexokinase method by means of an analysis photometer. The statistical evalulation was performed with the t-test according to Student with p=0.05.

mice = assay: Acute toxicity in female and male mice after oral administration of a single dose; settings: observation time 14 days
Protocol: (§1) The acute toxicity was determined in home-bred female and male mice having body weights of from 20 to 26 gm after oral administration (suspension in a 1% methyl cellulose solution) of a single dose. Observation time: 14 days.

[1] = as above; settings: mouse, in vivo, observation time 14 days, read-out: Peroral Toxicity
Protocol: as §1

[2] = 1 mg/kg orally, 3 hours, n.s. = not statistically significant
[3] = 1 mg/kg orally, 1 hour, n.s. = not statistically significant
[4] = 1 mg/kg orally, 2 hours, n.s. = not statistically significant
[5] = 1 mg/kg orally, 4 hours, n.s. = not statistically significant
[6] = 5 mg/kg orally, 1 hour, n.s. = not statistically significant
[7] = 5 mg/kg orally, 2 hours, n.s. = not statistically significant
[8] = 5 mg/kg orally, 3 hours, n.s. = not statistically significant
[9] = 5 mg/kg orally, 4 hours, n.s. = not statistically significant
[10] = 10 mg/kg orally (footnote *), 3 hours, n.s. = not statistically significant
[11] = 10 mg/kg orally (footnote *), 4 hours, n.s. = not statistically significant
[12] = 10 mg/kg orally (footnote *), 1 hour
[13] = 10 mg/kg orally (footnote *), 2 hours

CC(NC(=O)Cc1ccc(C(=O)O)cc1)c1ccccc1N1CCCCC1 (racemic) [AT, (±)-4-[(1-(2-Piperidino-phenyl)-1-ethyl)-aminocarbonylmethyl]-benzoicacid]
Blood-sugar lowering activity, percent as compared with the controls (blood-sugar; [2]): n.s. | change in vivo at 1 mg/kg (blood-sugar; [3]): -34% | change in vivo at 1 mg/kg (blood-sugar; [4]): -26% | change in vivo at 1 mg/kg (blood-sugar; [5]): -11% | change in vivo at 5 mg/kg (blood-sugar; [6]): -45% | change in vivo at 5 mg/kg (blood-sugar; [7]): -45% | change in vivo at 5 mg/kg (blood-sugar; [8]): -36% | change in vivo at 5 mg/kg (blood-sugar; [9]): -32% | animals died (mice): 1 out of 10 | LD50 at 336 h [1]: > 2000 mg/kg

COCC(NC(=O)Cc1ccc(C(=O)O)cc1)c1ccccc1N1CCCCC1 (stereo not shown) [Compound P, 4-[(2-Methoxy-1-(2-piperidino-phenyl)-1-ethyl)-aminocarbonylmethyl]-benzoic acid]
Blood-sugar lowering activity, percent as compared with the controls (blood-sugar; [2]): n.s. | Blood-sugar lowering activity, percent as compared with the controls (blood-sugar; [5]): n.s. | change in vivo at 1 mg/kg (blood-sugar; [3]): -37% | change in vivo at 1 mg/kg (blood-sugar; [4]): -19% | change in vivo at 5 mg/kg (blood-sugar; [6]): -49% | change in vivo at 5 mg/kg (blood-sugar; [7]): -43% | change in vivo at 5 mg/kg (blood-sugar; [8]): -34% | change in vivo at 5 mg/kg (blood-sugar; [9]): -22%

CCCC/C=C(\NC(=O)Cc1ccc(C(=O)OCC)cc1)c1ccccc1N1CCCCC1 [E, (Z)-4-[(1-(2-Piperidino-phenyl)-1-hexen-1-yl)-aminocarbonylmethyl]-benzoic acid ethyl ester]
change in vivo at 1 mg/kg (blood-sugar; [3]): -23% | change in vivo at 1 mg/kg (blood-sugar; [4]): -23% | change in vivo at 1 mg/kg (blood-sugar; [2]): -12% | change in vivo at 1 mg/kg (blood-sugar; [5]): -18% | change in vivo at 5 mg/kg (blood-sugar; [6]): -46% | change in vivo at 5 mg/kg (blood-sugar; [7]): -40% | change in vivo at 5 mg/kg (blood-sugar; [8]): -38% | change in vivo at 5 mg/kg (blood-sugar; [9]): -26%

O=C(Cc1ccc(C(=O)O)cc1)N/C(=C\Cc1ccccc1)c1ccccc1N1CCCCC1 [F, (Z)-4-[(3-Phenyl-1-(2-piperidino-phenyl)-1-propen-1-yl)-aminocarbonylmethyl]-benzoic acid]
change in vivo at 5 mg/kg (blood-sugar; [6]): -43% | change in vivo at 5 mg/kg (blood-sugar; [7]): -42% | change in vivo at 5 mg/kg (blood-sugar; [8]): -39% | change in vivo at 5 mg/kg (blood-sugar; [9]): -32%

CC/C=C(\NC(=O)Cc1ccc(C(=O)O)cc1)c1ccccc1N1CCCC(C)(C)C1 [G, (Z)-4-[(1-(2-(3,3-Dimethyl-piperidino)-phenyl)-1-buten-1-yl)-aminocarbonylmethyl]-benzoic acid]
change in vivo at 1 mg/kg (blood-sugar; [3]): -44% | change in vivo at 1 mg/kg (blood-sugar; [4]): -42% | change in vivo at 1 mg/kg (blood-sugar; [2]): -37% | change in vivo at 1 mg/kg (blood-sugar; [5]): -31%

CCCC(NC(=O)Cc1ccc(C(=O)O)cc1)c1ccccc1N1CCCC1 (stereo not shown) [H, 4-[(1-(2-Pyrrolidino-phenyl)-1-butyl)-aminocarbonylmethyl]-benzoic acid]
change in vivo at 5 mg/kg (blood-sugar; [6]): -50% | change in vivo at 5 mg/kg (blood-sugar; [7]): -46% | change in vivo at 5 mg/kg (blood-sugar; [8]): -44% | change in vivo at 5 mg/kg (blood-sugar; [9]): -45%

CCCC(NC(=O)Cc1ccc(C(=O)O)cc1)c1ccccc1N1CCCCCC1 (stereo not shown) [M, 4-[(1-(2-Hexahydroazepino-phenyl)-1-butyl)-aminocarbonylmethyl]-benzoic acid]
Blood-sugar lowering activity, percent as compared with the controls (blood-sugar; [5]): n.s. | change in vivo at 1 mg/kg (blood-sugar; [3]): -33% | change in vivo at 1 mg/kg (blood-sugar; [4]): -30% | change in vivo at 1 mg/kg (blood-sugar; [2]): -21% | change in vivo at 5 mg/kg (blood-sugar; [6]): -46% | change in vivo at 5 mg/kg (blood-sugar; [7]): -43% | change in vivo at 5 mg/kg (blood-sugar; [8]): -40% | change in vivo at 5 mg/kg (blood-sugar; [9]): -36%

CCCCCC(NC(=O)Cc1ccc(C(=O)O)cc1)c1ccccc1N1CCCCC1 (stereo not shown) [N, 4-[(1-(2-Piperidino-phenyl)-1-hexyl)-aminocarbonylmethyl]-benzoic acid]
change in vivo at 5 mg/kg (blood-sugar; [6]): -42% | change in vivo at 5 mg/kg (blood-sugar; [7]): -42% | change in vivo at 5 mg/kg (blood-sugar; [8]): -37% | change in vivo at 5 mg/kg (blood-sugar; [9]): -33%

O=C(Cc1ccc(C(=O)O)cc1)NC(CCc1ccccc1)c1ccccc1N1CCCCC1 (stereo not shown) [O, 4-[(3-Phenyl-1-(2-piperidino-phenyl)-1-propyl)-aminocarbonylmethyl]-benzoic acid]
Blood-sugar lowering activity, percent as compared with the controls (blood-sugar; [10]): n.s. | Blood-sugar lowering activity, percent as compared with the controls (blood-sugar; [11]): n.s. | change in vivo at 10 mg/kg (blood-sugar; [12]): -38% | change in vivo at 10 mg/kg (blood-sugar; [13]): -31%

N#CC(NC(=O)Cc1ccc(C(=O)O)cc1)c1ccccc1N1CCCCC1 (stereo not drawn) [Q, 4-[(α-Cyano-2-piperidino-benzyl)-aminocarbonylmethyl]-benzoic acid]
Blood-sugar lowering activity, percent as compared with the controls (blood-sugar; [8]): n.s. | Blood-sugar lowering activity, percent as compared with the controls (blood-sugar; [9]): n.s. | change in vivo at 5 mg/kg (blood-sugar; [6]): -28% | change in vivo at 5 mg/kg (blood-sugar; [7]): -13%

CCCC(NC(=O)Cc1ccc(CO)cc1)c1ccccc1N1CCCCC1 (stereo not shown) [R, 4-[(1-(2-Piperidino-phenyl)-1-butyl)-aminocarbonylmethyl]-benzyl alcohol]
change in vivo at 1 mg/kg (blood-sugar; [3]): -39% | change in vivo at 1 mg/kg (blood-sugar; [4]): -34% | change in vivo at 1 mg/kg (blood-sugar; [2]): -29% | change in vivo at 1 mg/kg (blood-sugar; [5]): -24% | change in vivo at 5 mg/kg (blood-sugar; [6]): -38% | change in vivo at 5 mg/kg (blood-sugar; [7]): -40% | change in vivo at 5 mg/kg (blood-sugar; [8]): -35% | change in vivo at 5 mg/kg (blood-sugar; [9]): -29%

CCCC(NC(=O)Cc1ccc(CC(=O)O)cc1)c1ccccc1N1CCCCC1 (stereo not shown) [S, 4-[(1-(2-Piperidino-phenyl)-1-butyl)-aminocarbonylmethyl]-phenyl-acetic acid]
Blood-sugar lowering activity, percent as compared with the controls (blood-sugar; [5]): n.s. | change in vivo at 1 mg/kg (blood-sugar; [3]): -29% | change in vivo at 1 mg/kg (blood-sugar; [4]): -20% | change in vivo at 1 mg/kg (blood-sugar; [2]): -10% | change in vivo at 5 mg/kg (blood-sugar; [6]): -49% | change in vivo at 5 mg/kg (blood-sugar; [7]): -42% | change in vivo at 5 mg/kg (blood-sugar; [8]): -30% | change in vivo at 5 mg/kg (blood-sugar; [9]): -17%

CCCC(NC(=O)Cc1ccc(C=CC(=O)O)cc1)c1ccccc1N1CCCCC1 (stereo not shown) [T, 4=[(1-(2-Piperidino-phenyl)-1-butyl)-aminocarbonylmethyl]-cinnamic acid]
change in vivo at 1 mg/kg (blood-sugar; [3]): -42% | change in vivo at 1 mg/kg (blood-sugar; [4]): -42% | change in vivo at 1 mg/kg (blood-sugar; [2]): -40% | change in vivo at 1 mg/kg (blood-sugar; [5]): -32% | change in vivo at 5 mg/kg (blood-sugar; [6]): -48% | change in vivo at 5 mg/kg (blood-sugar; [7]): -46% | change in vivo at 5 mg/kg (blood-sugar; [8]): -42% | change in vivo at 5 mg/kg (blood-sugar; [9]): -40%

CCCC(NC(=O)Cc1ccc(C(=O)OCC(O)CO)cc1)c1ccccc1N1CCCCC1 (stereo not shown) [U, 4-[(1-(2-Piperidino-phenyl)-1-butyl)-aminocarbonylmethyl]-benzoic acid 2,3-dihydroxy-propyl ester]
change in vivo at 1 mg/kg (blood-sugar; [3]): -39% | change in vivo at 1 mg/kg (blood-sugar; [4]): -35% | change in vivo at 1 mg/kg (blood-sugar; [2]): -29% | change in vivo at 1 mg/kg (blood-sugar; [5]): -24% | change in vivo at 5 mg/kg (blood-sugar; [6]): -43% | change in vivo at 5 mg/kg (blood-sugar; [7]): -43% | change in vivo at 5 mg/kg (blood-sugar; [8]): -49% | change in vivo at 5 mg/kg (blood-sugar; [9]): -45%

CCCC(NC(=O)Cc1ccc(C(=O)O)cc1)c1ccc(F)cc1N1CCCCC1 (stereo not shown) [V, 4-[(1-(4-Fluoro-2-piperidino-phenyl)-1-butyl)-aminocarbonylmethyl]-benzoic acid]
change in vivo at 1 mg/kg (blood-sugar; [3]): -37% | change in vivo at 1 mg/kg (blood-sugar; [4]): -23% | change in vivo at 1 mg/kg (blood-sugar; [2]): -30% | change in vivo at 1 mg/kg (blood-sugar; [5]): -18% | change in vivo at 5 mg/kg (blood-sugar; [6]): -45% | change in vivo at 5 mg/kg (blood-sugar; [7]): -41% | change in vivo at 5 mg/kg (blood-sugar; [8]): -46% | change in vivo at 5 mg/kg (blood-sugar; [9]): -40%

CCCC(NC(=O)Cc1ccc(C(=O)O)cc1)c1ccc(OC)cc1N1CCCCC1 (stereo not shown) [W, 4-[(1-(4-Methoxy-2-piperidino-phenyl)-1-butyl)-aminocarbonylmethyl]-benzoic acid]
Blood-sugar lowering activity, percent as compared with the controls (blood-sugar; [5]): n.s. | change in vivo at 1 mg/kg (blood-sugar; [3]): -36% | change in vivo at 1 mg/kg (blood-sugar; [4]): -25% | change in vivo at 1 mg/kg (blood-sugar; [2]): -16% | change in vivo at 5 mg/kg (blood-sugar; [6]): -46% | change in vivo at 5 mg/kg (blood-sugar; [7]): -45% | change in vivo at 5 mg/kg (blood-sugar; [8]): -39% | change in vivo at 5 mg/kg (blood-sugar; [9]): -37%

C=C(NC(=O)Cc1ccc(C(=O)O)cc1)c1ccccc1N1CCCCCCCC1 [X, 4-[(1-(2-Octahydroazonino-phenyl)-1-ethenyl)-aminocarbonylmethyl]-benzoicacid]
change in vivo at 10 mg/kg (blood-sugar; [12]): -34% | change in vivo at 10 mg/kg (blood-sugar; [13]): -21% | change in vivo at 10 mg/kg (blood-sugar; [10]): -17% | change in vivo at 10 mg/kg (blood-sugar; [11]): -14%

CC(NC(=O)Cc1ccc(C(=O)O)cc1)c1cccc(Cl)c1N1CCCCC1 (stereo not shown) [Y, 4-[(1-(3-Chloro-2-piperidino-phenyl)-1-ethyl)-aminocarbonylmethyl]-benzoic acid]
change in vivo at 5 mg/kg (blood-sugar; [6]): -32% | change in vivo at 5 mg/kg (blood-sugar; [7]): -24% | change in vivo at 5 mg/kg (blood-sugar; [8]): -16% | change in vivo at 5 mg/kg (blood-sugar; [9]): -18%

Cc1cccc(C(C)NC(=O)Cc2ccc(C(=O)O)cc2)c1N1CCCCC1 (stereo not shown) [Z, 4-[(1-(3-Methyl-2-piperidino-phenyl)-1-ethyl)-aminocarbonylmethyl]-benzoic acid]
change in vivo at 5 mg/kg (blood-sugar; [6]): -22% | change in vivo at 5 mg/kg (blood-sugar; [7]): -33% | change in vivo at 5 mg/kg (blood-sugar; [8]): -28% | change in vivo at 5 mg/kg (blood-sugar; [9]): -26%
